# Laboratory results: patent US7868007B2, “Triazolopyridine carboxamide derivatives, preparation thereof and therapeutic use thereof” (sanofi-aventis, priority 2007, dated 2011)
# Tests used:
# [1] = target: T1, MGL (monoacyl glycerol lipase) enzyme (Mus musculus, UniProt O35678); assay: radioenzymatic assay of MGL inhibition (hydrolysis of [3H] 2-OG by mouse brain homogenate); format: biochemical; conditions: 50 μM 2-OG with [3H] 2-OG, 20 minutes preincubation, 20 minutes incubation at ambient temperature, read-out: IC50 (concentration which inhibits 50% of the control enzymatic activity of MGL)
# T1 construct: the source of MGL enzyme is a homogenate of mouse brain from which the cerebellum and the medulla oblongata have been removed; from tissue; host or cells: mouse brain homogenate (cerebellum and medulla oblongata removed)
# T1 sequence (O35678 1-303): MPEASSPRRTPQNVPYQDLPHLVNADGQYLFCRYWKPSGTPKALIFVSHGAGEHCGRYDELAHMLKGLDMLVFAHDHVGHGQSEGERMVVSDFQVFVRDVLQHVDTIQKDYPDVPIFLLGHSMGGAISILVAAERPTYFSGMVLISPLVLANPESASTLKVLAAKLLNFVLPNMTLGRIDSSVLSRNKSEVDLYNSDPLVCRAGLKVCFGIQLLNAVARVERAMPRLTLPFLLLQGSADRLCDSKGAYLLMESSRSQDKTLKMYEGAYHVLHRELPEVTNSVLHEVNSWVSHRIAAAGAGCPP
# Protocol: The inhibitory activity with respect to MGL is given by the concentration which inhibits 50% of the activity of MGL.
# The inhibitory activity was measured in a radioenzymatic assay based on measuring the product of hydrolysis of 2-oleoyl glycerol ([^3H] 2-OG) by MGL. The products of hydrolysis of [^3H] 2-OG, labeled on the glycerol, are oleic acid and [^3H]glycerol, and the source of MGL enzyme is a homogenate of mouse brain from which the cerebellum and the medulla oblongata have been removed. The mouse brains are removed, and stored at −80° C. until they are used or homogenized immediately for twice 5 seconds using a Precellys apparatus at 5000 rpm (Bertin) in a 10 mM tris-HCl, 150 mM NaCl, 1 mM EDTA buffer (pH 8) at 4° C. The concentration of the homogenates is then adjusted to 7.5 μg/μl.
# The dilution series of the compounds is prepared from stock solutions at 20 mM in 100% DMSO. […]
# Assaying of the MGL activity is carried out in a 96-well microplate in a final reaction volume of 100 μl. […] After stirring for 10 minutes, the microplate is centrifuged for 15 minutes at 4000 g and a 30 μl aliquot of the aqueous phase containing the [^3H]glycerol produced is removed and then counted for 5 minutes by liquid scintillation (Wallac 1450 Microbeta).
SMILES,IC50 [1] [µM],melting point
"O=C(N1CCN(C(c2ccccc2)c2ccccc2)CC1)n1nnc2ncccc21 [Compound 1, (4-Benzhydrylpiperazin-1-yl)[1,2,3]triazolo[4,5-b]pyridin-1-ylmethanone]",0.004,146 to 148 °C (dec.)
"O=C(N1CCN(C2c3ccccc3CCc3ccccc32)CC1)n1nnc2ncccc21 [Compound 7, [4-(10,11-Dihydro-5H-dibenzo[a,d]cyclohepten-5-yl)piperazin-1-yl][1,2,3]triazolo[4,5-b]-pyridin-1-ylmethanone]",0.025,190 to 194 °C (dec.)
"O=C(N1CCN(C2c3ccccc3-c3ccccc32)CC1)n1nnc2ncccc21 [Compound 8, [4-(9H-Fluoren-9-yl)piperazin-1-yl][1,2,3]triazolo[4,5-b]pyridin-1-ylmethanone]",–,170 to 172 °C (dec.)

# The next lines start with the values.
IC50 [1] [µM],melting point,SMILES
–,173 to 175 °C (dec.),"O=C(N1CCN(C(c2ccccc2)c2ccccc2)CC1)n1nnc2ncc(Cl)cc21 [Compound 2, (4-Benzhydrylpiperazin-1-yl)(6-chloro[1,2,3]triazolo[4,5-b]pyridin-1-yl)methanone]"
–,151 to 153 °C (dec.),"O=C(N1CCN(C(c2ccc(F)cc2)c2ccc(F)cc2)CC1)n1nnc2ncccc21 [Compound 3, {4-[Bis(4-fluorophenyl)methyl]piperazin-1-yl}[1,2,3]triazolo[4,5-b]pyridin-1-ylmethanone]"
–,163 to 165 °C (dec.),"O=C(N1CCN(C(c2ccc(Cl)cc2)c2ccc(Cl)cc2)CC1)n1nnc2ncccc21 [Compound 4, {4-[Bis(4-chlorophenyl)methyl]piperazin-1-yl}[1,2,3]triazolo[4,5-b]pyridin-1-ylmethanone]"
–,167 to 169 °C (dec.),"O=C(N1CCN(C(c2ccc(F)cc2)c2ccc(F)cc2)CC1)n1nnc2ncc(Cl)cc21 [Compound 5, {4-[Bis(4-fluorophenyl)methyl]piperazin-1-yl}(6-chloro[1,2,3]triazolo[4,5-b]pyridin-1-yl)-methanone]"
